Experiments:
Experiment in all cases: relative viability (nuclei count vs DMSO), 5 days (fraction); higher = more cells survive
[1] = compound: CCc1cnn2c(NCc3ccc[n+]([O-])c3)cc(N3CCCC[C@H]3CCO)nc12 [Dinaciclib] + CC1(C)CCC(c2ccc(Cl)cc2)=C(CN2CCN(c3ccc(C(=O)NS(=O)(=O)c4ccc(N[C@H](CCN5CCOCC5)CSc5ccccc5)c(S(=O)(=O)C(F)(F)F)c4)cc3)CC2)C1 [Navitoclax] (partner 0.5 µM)
Summary of the method: (§1)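 Lung cancer cell lines in 1536-well plates were dosed by pin tool the day after seeding, either with one drug alone or with a fixed anchor-drug dose plus five library-drug doses (not always all listed) in √10 steps. After 5 days, cells were fixed and their nuclei stained in one step (final 0.05% Triton X-100, 1% formaldehyde, 1 ug/ml Hoechst), then counted on 4× images. Relative viability is the nuclei count in treated wells divided by that in vehicle wells. Values are medians of duplicate plates.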

[2] = compound: CCc1cnn2c(NCc3ccc[n+]([O-])c3)cc(N3CCCC[C@H]3CCO)nc12 [Dinaciclib] + CC(C)C[C@H](NC(=O)[C@H](Cc1ccccc1)NC(=O)c1cnccn1)B(O)O [Bortezomib] (partner 0.002 µM)
Summary of the method: as §1

[3] = compound: CCc1cnn2c(NCc3ccc[n+]([O-])c3)cc(N3CCCC[C@H]3CCO)nc12 [Dinaciclib] + CS(=O)(=O)CCNCc1ccc(-c2ccc3ncnc(Nc4ccc(OCc5cccc(F)c5)c(Cl)c4)c3c2)o1 [Lapatinib] (partner 2 µM)
Summary of the method: as §1

[4] = compound: CCc1cnn2c(NCc3ccc[n+]([O-])c3)cc(N3CCCC[C@H]3CCO)nc12 [Dinaciclib] + CS(=O)(=O)N1CCN(Cc2cc3nc(-c4cccc5[nH]ncc45)nc(N4CCOCC4)c3s2)CC1 [Pictilisib] (partner 1 µM)
Summary of the method: as §1

[5] = compound: CCc1cnn2c(NCc3ccc[n+]([O-])c3)cc(N3CCCC[C@H]3CCO)nc12 [Dinaciclib] + COc1cccc2cc(-c3nc([C@H]4CC[C@H](C(=O)O)CC4)n4ncnc(N)c34)[nH]c12 [OSI-027] (partner 0.5 µM)
Summary of the method: as §1

Cell Line	relative viability ([1]; first compound 0.009487 µM)	relative viability ([1]; first compound 0.03 µM)	relative viability ([1]; first compound 0.09487 µM)	relative viability ([1]; first compound 0.3 µM)	relative viability ([2]; first compound 0.009487 µM)	relative viability ([2]; first compound 0.03 µM)	relative viability ([2]; first compound 0.09487 µM)	relative viability ([2]; first compound 0.3 µM)	relative viability ([3]; first compound 0.009487 µM)	relative viability ([3]; first compound 0.03 µM)	relative viability ([3]; first compound 0.09487 µM)	relative viability ([3]; first compound 0.3 µM)	relative viability ([4]; first compound 0.009487 µM)	relative viability ([4]; first compound 0.03 µM)	relative viability ([4]; first compound 0.09487 µM)	relative viability ([4]; first compound 0.3 µM)	relative viability ([5]; first compound 0.009487 µM)	relative viability ([5]; first compound 0.03 µM)	relative viability ([5]; first compound 0.09487 µM)	relative viability ([5]; first compound 0.3 µM)
NCI-H647	0.764	0.0454	0.0549	0.0648	0.208	0.0668	0.0726	0.0623	0.31	0.0588	0.0482	0.0727	0.493	0.0803	0.0566	0.0473	0.499	0.206	0.0824	0.0778
NCI-H2009	1.01	0.515	0.0255	0.031	0.88	0.101	0.069	0.0948	0.493	0.108	0.101	0.0913	0.661	0.0836	0.0705	0.0666	0.528	0.0935	0.11	0.107
EPLC-272H	1.05	0.576	0.411	0.0616	0.89	0.57	0.0541	0.0535	1	0.104	0.0545	0.051	0.218	0.0536	0.0465	0.046	0.288	0.152	0.0567	0.0523
NCI-H520	0.69	0.12	0.12	0.117	0.23	0.105	0.103	0.14	0.509	0.115	0.104	0.141	0.25	0.169	0.0942	0.165	0.277	0.179	0.19	0.156
NCI-H2405	0.795	0.0802	0.0747	0.0589	0.904	0.761	0.207	0.271	0.957	0.197	0.207	0.183	0.572	0.226	0.227	0.177	0.625	0.409	0.226	0.198
NCI-H2085	1.14	0.201	0.154	0.172	1.06	0.446	0.26	0.233	0.712	0.238	0.249	0.26	0.424	0.281	0.221	0.215	0.748	0.264	0.243	0.196
NCI-H322M	1.27	1.2	0.587	0.205	1.26	1.26	0.52	0.187	0.637	0.325	0.243	0.201	0.497	0.262	0.2	0.583	0.419	0.286	0.323	0.285
NCI-H1944	1.19	0.67	0.177	0.169	–	–	–	–	0.936	0.169	0.143	0.147	0.4	0.172	0.168	0.177	0.413	0.156	0.139	0.141
LC-2-ad	0.401	0.0677	0.067	0.0747	1.05	0.0825	0.0622	0.0691	0.9	0.0784	0.058	0.0576	0.305	0.071	0.0698	0.0506	0.58	0.251	0.247	0.227
NCI-H358	–	–	–	–	–	–	–	–	0.341	0.216	0.196	0.188	0.272	0.185	0.174	0.176	0.49	0.0844	0.0665	0.0776
NCI-H2170	0.477	0.155	0.139	0.19	–	–	–	–	0.273	0.197	0.186	0.175	0.27	0.151	0.163	0.196	0.741	0.156	0.152	0.14
A-427	0.94	0.434	0.089	0.0921	0.969	0.487	0.0789	0.0623	0.949	0.291	0.0989	0.0767	0.564	0.0973	0.0666	0.065	0.385	0.143	0.0922	0.0796
NCI-H1666	0.848	0.186	0.227	0.244	0.528	0.19	0.164	0.18	0.319	0.19	0.182	0.212	0.4	0.19	0.21	0.226	0.857	0.484	0.375	0.346
LOU-NH91	0.707	0.254	0.151	0.138	0.4	0.345	0.287	0.281	0.738	0.302	0.254	0.238	0.507	0.288	0.254	0.229	0.787	0.543	0.227	0.222
ABC-1	–	–	–	–	0.231	0.179	0.167	0.157	1.19	0.574	0.357	0.303	0.658	0.157	0.163	0.136	0.329	0.123	0.104	0.118
NCI-H1651	0.745	0.289	0.0312	0.0396	0.96	0.763	0.25	0.0931	0.685	0.142	0.0637	0.0602	0.507	0.115	0.0517	0.0439	0.694	0.53	0.163	0.0729
201T	1.31	1.19	0.416	0.32	1.15	0.718	0.321	0.281	1.14	0.743	0.361	0.245	0.714	0.372	0.308	0.265	0.801	0.297	0.119	0.183
NCI-H3122	0.973	0.156	0.119	0.142	1	0.195	0.139	0.151	1.01	0.185	0.147	0.169	0.385	0.178	0.134	0.13	0.407	0.108	0.0984	0.114

Cell Line	relative viability ([1]; first compound 0.009487 µM)	relative viability ([1]; first compound 0.03 µM)	relative viability ([1]; first compound 0.09487 µM)	relative viability ([1]; first compound 0.3 µM)	relative viability ([2]; first compound 0.009487 µM)	relative viability ([2]; first compound 0.03 µM)	relative viability ([2]; first compound 0.09487 µM)	relative viability ([2]; first compound 0.3 µM)	relative viability ([3]; first compound 0.009487 µM)	relative viability ([3]; first compound 0.03 µM)	relative viability ([3]; first compound 0.09487 µM)	relative viability ([3]; first compound 0.3 µM)	relative viability ([4]; first compound 0.009487 µM)	relative viability ([4]; first compound 0.03 µM)	relative viability ([4]; first compound 0.09487 µM)	relative viability ([4]; first compound 0.3 µM)	relative viability ([5]; first compound 0.009487 µM)	relative viability ([5]; first compound 0.03 µM)	relative viability ([5]; first compound 0.09487 µM)	relative viability ([5]; first compound 0.3 µM)
A549	1.05	0.0352	0.038	0.0398	–	–	–	–	0.85	0.0505	0.0627	0.0615	0.375	0.0566	0.0629	0.0604	–	–	–	–
NCI-H727	0.37	0.0912	0.0827	0.0949	0.869	0.231	0.217	0.238	0.644	0.238	0.222	0.228	0.297	0.173	0.196	0.134	0.468	0.317	0.285	0.326
NCI-H441	0.655	0.11	0.135	0.128	0.45	0.158	0.2	0.143	–	–	–	–	0.589	0.126	0.111	0.115	0.519	0.185	0.202	0.153
HOP-62	0.967	0.126	0.0367	0.042	0.643	0.0795	0.0423	0.0609	0.917	0.281	0.0612	0.0566	0.583	0.092	0.0651	0.0405	0.72	0.446	0.139	0.0825
RERF-LC-KJ	0.906	0.172	0.122	0.169	1.1	0.327	0.157	0.173	0.958	0.563	0.151	0.128	0.448	0.19	0.124	0.117	0.461	0.177	0.185	0.182
HCC-44	1.08	0.15	0.149	0.161	0.883	0.115	0.106	0.102	0.921	0.144	0.134	0.135	0.711	0.248	0.122	0.129	0.286	0.208	0.159	0.17
LCLC-103H	–	–	–	–	1.04	0.998	0.451	0.108	–	–	–	–	0.572	0.463	0.147	0.143	0.451	0.483	0.111	0.109
ChaGo-K-1	0.541	0.219	0.173	0.17	0.637	0.222	0.178	0.187	–	–	–	–	0.321	0.213	0.175	0.161	0.499	0.186	0.128	0.119
NCI-H1703	1.19	0.117	0.0887	0.114	0.366	0.122	0.132	0.114	1.01	0.133	0.114	0.134	0.26	0.154	0.127	0.133	–	–	–	–
LK-2	0.761	0.123	0.0967	0.102	–	–	–	–	0.712	0.182	0.102	0.176	0.358	0.23	0.21	0.214	0.218	0.196	0.16	0.131
NCI-H650	–	–	–	–	0.295	0.132	0.129	0.123	0.566	0.171	0.0978	0.146	0.872	0.218	0.135	0.134	0.57	0.203	0.158	0.15
NCI-H661	–	–	–	–	0.774	0.155	0.167	0.186	0.41	0.183	0.181	0.191	0.346	0.181	0.175	0.177	0.637	0.163	0.168	0.168
NCI-H1793	0.42	0.17	0.139	0.134	–	–	–	–	0.389	0.112	0.18	0.147	0.288	0.177	0.145	0.2	0.268	0.13	0.107	0.123
NCI-H1395	1.06	0.263	0.299	0.267	–	–	–	–	0.506	0.314	0.292	0.276	0.483	0.248	0.269	0.248	0.631	0.311	0.251	0.215
SK-MES-1	1.26	0.131	0.114	0.119	–	–	–	–	0.5	0.355	0.16	0.151	0.381	0.24	0.128	0.128	0.559	0.13	0.136	0.149
NCI-H1563	–	–	–	–	1.13	0.485	0.368	0.387	1.24	0.489	0.411	0.423	0.655	0.326	0.296	0.284	0.795	0.416	0.297	0.27
IA-LM	0.695	0.0044	0.0033	0.0072	0.72	0.0186	0.019	0.014	0.73	0.0584	0.053	0.0435	0.327	0.0323	0.0279	0.0329	–	–	–	–

Reference: the supplement of paper PMC10307832
